{
  "source": "ChEMBL document CHEMBL4411260",
  "about": "“Dual Inhibition of TYK2 and JAK1 for the Treatment of Autoimmune Diseases: Discovery of (( S)-2,2-Difluorocyclopropyl)((1 R,5 S)-3-(2-((1-methyl-1 H-pyrazol-4-yl)amino)pyrimidin-4-yl)-3,8-diazabicyclo[3.2.1]octan-8-yl)methanone (PF-06700841)” (J Med Chem, 2018)",
  "key": {"[1]": {"molecular_target": "Platelet-derived growth factor receptor beta (Homo sapiens) (UniProt P09619)", "experiment": "Inhibition of N-terminal GST tagged human PDGFRbeta (557 to 1106 end residues) cytoplasmic domain expressed in baculovirus expression system at 1 uM in presence of ATP at its Km level relative to control"}, "[2]": {"system": "Platelet-derived growth factor receptor alpha (Homo sapiens), P16234 [T674I]", "experiment": "Inhibition of N-terminal GST tagged human PDGFRalpha (550 to 1089 end residues) catalytic domain T674I mutant expressed in baculovirus expression system at 1 uM in presence of ATP at its Km level relative to control"}, "[3]": {"molecular_target": "NUAK family SNF1-like kinase 1 (Homo sapiens) (UniProt O60285)", "sequence (O60285 whole entry)": "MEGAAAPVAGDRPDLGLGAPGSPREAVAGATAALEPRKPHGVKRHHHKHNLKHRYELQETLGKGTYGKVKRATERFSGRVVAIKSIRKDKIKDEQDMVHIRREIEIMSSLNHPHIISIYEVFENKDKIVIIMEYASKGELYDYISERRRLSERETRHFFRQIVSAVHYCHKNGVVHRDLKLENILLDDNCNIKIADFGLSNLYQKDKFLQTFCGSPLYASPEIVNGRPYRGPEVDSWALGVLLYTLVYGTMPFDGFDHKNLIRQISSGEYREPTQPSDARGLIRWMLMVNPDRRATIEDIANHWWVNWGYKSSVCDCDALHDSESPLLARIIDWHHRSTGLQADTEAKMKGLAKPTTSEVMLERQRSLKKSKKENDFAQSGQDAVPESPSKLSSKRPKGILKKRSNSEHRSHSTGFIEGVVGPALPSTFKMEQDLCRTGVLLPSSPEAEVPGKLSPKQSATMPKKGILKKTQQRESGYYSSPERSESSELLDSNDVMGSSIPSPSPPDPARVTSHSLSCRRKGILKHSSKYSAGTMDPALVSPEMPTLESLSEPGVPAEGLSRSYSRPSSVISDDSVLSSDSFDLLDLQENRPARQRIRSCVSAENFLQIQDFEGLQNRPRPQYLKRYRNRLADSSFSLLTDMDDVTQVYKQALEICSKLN", "experiment": "Inhibition of N-terminal GST tagged full length human Nuak1 (1 to 661 end residues) expressed in baculovirus expression system at 1 uM in presence of ATP at its Km level relative to control"}, "[4]": {"molecular_target": "Activated CDC42 kinase 1 (Homo sapiens) (UniProt Q07912)", "experiment": "Inhibition of N-terminal GST tagged human ACK (110 to 476 residues) catalytic domain expressed in baculovirus expression system at 1 uM in presence of ATP at its Km level relative to control"}, "[5]": {"molecular_target": "T1, Non-receptor tyrosine-protein kinase TYK2 (Homo sapiens, UniProt P29597)", "T1 sequence (P29597 whole entry, the tested form may be a part)": "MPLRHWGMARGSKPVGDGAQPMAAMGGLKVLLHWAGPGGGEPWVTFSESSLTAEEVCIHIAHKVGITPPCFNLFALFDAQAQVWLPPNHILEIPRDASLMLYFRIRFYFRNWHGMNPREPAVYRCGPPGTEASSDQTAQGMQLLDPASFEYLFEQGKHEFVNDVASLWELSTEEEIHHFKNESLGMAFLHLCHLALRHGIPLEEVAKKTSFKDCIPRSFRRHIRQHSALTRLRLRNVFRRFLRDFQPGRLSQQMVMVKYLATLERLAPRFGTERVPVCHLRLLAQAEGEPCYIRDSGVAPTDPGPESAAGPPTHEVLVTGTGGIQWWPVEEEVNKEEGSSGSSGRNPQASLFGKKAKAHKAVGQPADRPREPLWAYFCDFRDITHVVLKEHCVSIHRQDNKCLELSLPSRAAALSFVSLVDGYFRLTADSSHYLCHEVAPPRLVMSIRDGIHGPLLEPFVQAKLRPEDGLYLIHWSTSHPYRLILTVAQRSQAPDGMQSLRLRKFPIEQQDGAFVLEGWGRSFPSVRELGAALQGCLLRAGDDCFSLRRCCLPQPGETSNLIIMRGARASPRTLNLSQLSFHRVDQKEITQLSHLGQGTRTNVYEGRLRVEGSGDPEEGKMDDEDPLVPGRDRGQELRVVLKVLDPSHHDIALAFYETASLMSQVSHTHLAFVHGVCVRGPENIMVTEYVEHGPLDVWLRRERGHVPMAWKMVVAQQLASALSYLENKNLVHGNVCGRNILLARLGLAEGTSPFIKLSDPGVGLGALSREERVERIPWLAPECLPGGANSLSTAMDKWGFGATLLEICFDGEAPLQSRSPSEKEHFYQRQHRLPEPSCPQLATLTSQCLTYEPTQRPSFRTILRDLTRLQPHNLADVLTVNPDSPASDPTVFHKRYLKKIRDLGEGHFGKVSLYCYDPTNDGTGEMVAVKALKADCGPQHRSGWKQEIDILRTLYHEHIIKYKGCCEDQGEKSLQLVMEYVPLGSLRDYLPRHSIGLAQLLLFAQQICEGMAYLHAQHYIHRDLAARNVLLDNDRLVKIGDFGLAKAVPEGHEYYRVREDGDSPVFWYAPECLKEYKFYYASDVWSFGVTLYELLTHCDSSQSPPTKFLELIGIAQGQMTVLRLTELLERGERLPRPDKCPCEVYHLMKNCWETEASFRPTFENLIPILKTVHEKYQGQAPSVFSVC", "experiment": "Inhibition of N-terminal GST tagged human TYK2 (871 to 1187 end residues) catalytic domain expressed in baculovirus expression system at 1 uM in presence of 1 mM ATP relative to control"}, "[6]": {"molecular_target": "Macrophage colony-stimulating factor 1 receptor (Homo sapiens) (UniProt P07333)", "experiment": "Inhibition of N-terminal GST tagged human FMS (538 to 972 end residues) cytoplasmic domain expressed in baculovirus expression system at 1 uM in presence of ATP at its Km level relative to control"}, "[7]": {"molecular_target": "T1, Non-receptor tyrosine-protein kinase TYK2", "experiment": "Inhibition of N-terminal GST tagged human TYK2 (871 to 1187 end residues) catalytic domain expressed in baculovirus expression system at 1 uM in presence of ATP at its Km level relative to control"}, "[8]": {"molecular_target": "MAP/microtubule affinity-regulating kinase 3 (Homo sapiens) (UniProt P27448)", "experiment": "Inhibition of N-terminal GST tagged full length human MARK3 (1 to 729 end residues) expressed in baculovirus expression system at 1 uM in presence of ATP at its Km level relative to control"}, "[9]": {"molecular_target": "MAP/microtubule affinity-regulating kinase 4 (Homo sapiens) (UniProt Q96L34)", "experiment": "Inhibition of N-terminal GST tagged full length human MARK4 (1 to 688 end residues) expressed in baculovirus expression system at 1 uM in presence of ATP at its Km level relative to control"}, "[10]": {"molecular_target": "Non-receptor tyrosine-protein kinase TNK1 (Homo sapiens) (UniProt Q13470)", "sequence (Q13470 whole entry, the tested form may be a part)": "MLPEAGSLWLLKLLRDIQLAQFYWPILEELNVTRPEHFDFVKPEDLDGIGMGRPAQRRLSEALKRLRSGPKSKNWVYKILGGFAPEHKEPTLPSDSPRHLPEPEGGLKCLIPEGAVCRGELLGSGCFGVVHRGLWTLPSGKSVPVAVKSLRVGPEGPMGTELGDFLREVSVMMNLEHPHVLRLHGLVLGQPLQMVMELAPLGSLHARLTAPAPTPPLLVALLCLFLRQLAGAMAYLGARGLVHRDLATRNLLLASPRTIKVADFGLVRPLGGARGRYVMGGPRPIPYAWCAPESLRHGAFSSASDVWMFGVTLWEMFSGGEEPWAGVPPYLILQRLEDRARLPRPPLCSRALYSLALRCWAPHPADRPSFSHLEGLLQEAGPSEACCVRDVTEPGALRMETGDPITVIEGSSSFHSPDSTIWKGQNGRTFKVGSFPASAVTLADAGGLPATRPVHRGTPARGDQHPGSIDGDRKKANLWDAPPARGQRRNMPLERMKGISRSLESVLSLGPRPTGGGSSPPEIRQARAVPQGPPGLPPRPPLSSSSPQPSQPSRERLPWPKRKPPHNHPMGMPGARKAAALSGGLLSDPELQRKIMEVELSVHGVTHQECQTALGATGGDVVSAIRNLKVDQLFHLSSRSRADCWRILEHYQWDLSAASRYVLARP", "experiment": "Inhibition of N-terminal GST tagged human TNK1 (106 to 390 residues) catalytic domain expressed in baculovirus expression system at 1 uM in presence of ATP at its Km level relative to control"}, "[11]": {"system": "Platelet-derived growth factor receptor alpha (Homo sapiens), P16234 [V561D]", "experiment": "Inhibition of N-terminal GST tagged human PDGFRalpha (550 to 1089 end residues) catalytic domain V561D mutant expressed in baculovirus expression system at 1 uM in presence of ATP at its Km level relative to control"}, "[12]": {"molecular_target": "T2, Tyrosine-protein kinase JAK1 (Homo sapiens, UniProt P23458)", "T2 sequence (P23458 whole entry, the tested form may be a part)": "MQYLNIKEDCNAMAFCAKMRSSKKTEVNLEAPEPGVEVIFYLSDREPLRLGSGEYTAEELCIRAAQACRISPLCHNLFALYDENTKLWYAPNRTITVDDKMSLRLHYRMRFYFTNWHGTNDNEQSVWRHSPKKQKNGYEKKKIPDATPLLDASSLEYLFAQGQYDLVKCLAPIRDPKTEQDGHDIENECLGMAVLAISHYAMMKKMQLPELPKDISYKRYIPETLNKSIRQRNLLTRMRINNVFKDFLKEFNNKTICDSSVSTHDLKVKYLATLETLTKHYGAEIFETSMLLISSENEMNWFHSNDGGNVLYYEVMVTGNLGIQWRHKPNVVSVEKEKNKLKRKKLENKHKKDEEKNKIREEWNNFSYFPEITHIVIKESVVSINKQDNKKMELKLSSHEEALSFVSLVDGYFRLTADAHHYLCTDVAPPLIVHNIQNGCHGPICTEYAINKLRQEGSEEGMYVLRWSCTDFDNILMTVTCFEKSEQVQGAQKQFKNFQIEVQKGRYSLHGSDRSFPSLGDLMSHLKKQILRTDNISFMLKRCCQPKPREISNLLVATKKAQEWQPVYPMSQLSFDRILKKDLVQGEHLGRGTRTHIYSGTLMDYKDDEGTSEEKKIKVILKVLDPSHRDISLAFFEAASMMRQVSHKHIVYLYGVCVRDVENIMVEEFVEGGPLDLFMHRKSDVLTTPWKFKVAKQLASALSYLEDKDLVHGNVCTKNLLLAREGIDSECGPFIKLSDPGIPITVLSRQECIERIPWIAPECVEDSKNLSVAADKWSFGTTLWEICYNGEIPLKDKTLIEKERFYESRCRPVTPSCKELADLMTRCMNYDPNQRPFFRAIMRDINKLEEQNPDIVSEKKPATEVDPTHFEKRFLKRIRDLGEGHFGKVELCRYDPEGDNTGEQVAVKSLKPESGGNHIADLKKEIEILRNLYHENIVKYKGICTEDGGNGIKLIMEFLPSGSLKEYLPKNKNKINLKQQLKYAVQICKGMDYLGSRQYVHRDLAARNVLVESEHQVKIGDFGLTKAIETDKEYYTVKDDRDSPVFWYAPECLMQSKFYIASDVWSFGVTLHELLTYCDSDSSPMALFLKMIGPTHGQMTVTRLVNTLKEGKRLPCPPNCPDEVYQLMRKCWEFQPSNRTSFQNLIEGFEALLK", "experiment": "Inhibition of N-terminal GST tagged human JAK1 (850 to 1154 end residues) catalytic domain expressed in baculovirus expression system at 1 uM in presence of ATP at its Km level relative to control"}, "[13]": {"molecular_target": "T3, Tyrosine-protein kinase JAK2 (Homo sapiens, UniProt O60674)", "T3 sequence (O60674 whole entry, the tested form may be a part)": "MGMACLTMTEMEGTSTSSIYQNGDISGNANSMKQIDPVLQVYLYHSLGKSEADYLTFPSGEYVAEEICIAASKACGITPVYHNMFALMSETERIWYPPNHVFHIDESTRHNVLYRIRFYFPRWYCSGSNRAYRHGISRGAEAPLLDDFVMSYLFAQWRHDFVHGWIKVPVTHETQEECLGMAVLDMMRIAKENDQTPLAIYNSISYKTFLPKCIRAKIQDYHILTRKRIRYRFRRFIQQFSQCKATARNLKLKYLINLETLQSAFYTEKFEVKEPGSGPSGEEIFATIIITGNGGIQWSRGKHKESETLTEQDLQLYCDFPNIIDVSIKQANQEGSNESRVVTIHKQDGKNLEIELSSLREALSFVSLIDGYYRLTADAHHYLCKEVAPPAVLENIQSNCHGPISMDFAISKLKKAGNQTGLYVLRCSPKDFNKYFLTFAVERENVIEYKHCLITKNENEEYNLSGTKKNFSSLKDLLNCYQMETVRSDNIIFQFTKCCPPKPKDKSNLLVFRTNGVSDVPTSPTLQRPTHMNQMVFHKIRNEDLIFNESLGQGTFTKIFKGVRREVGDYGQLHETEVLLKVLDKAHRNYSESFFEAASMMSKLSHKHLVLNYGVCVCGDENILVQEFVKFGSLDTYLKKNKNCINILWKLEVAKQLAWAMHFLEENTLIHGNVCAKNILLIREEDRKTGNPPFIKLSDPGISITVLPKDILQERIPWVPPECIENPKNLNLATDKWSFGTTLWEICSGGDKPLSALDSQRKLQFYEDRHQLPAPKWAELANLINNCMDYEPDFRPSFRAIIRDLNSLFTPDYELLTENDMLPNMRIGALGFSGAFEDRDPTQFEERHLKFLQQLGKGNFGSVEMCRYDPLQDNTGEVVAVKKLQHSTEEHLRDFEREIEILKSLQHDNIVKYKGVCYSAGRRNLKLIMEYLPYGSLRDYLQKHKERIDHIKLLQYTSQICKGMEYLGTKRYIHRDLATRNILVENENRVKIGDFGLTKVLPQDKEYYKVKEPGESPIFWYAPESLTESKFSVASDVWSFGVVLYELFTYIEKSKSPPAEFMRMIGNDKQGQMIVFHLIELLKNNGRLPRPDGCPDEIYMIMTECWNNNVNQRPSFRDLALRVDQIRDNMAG", "experiment": "Inhibition of N-terminal His tagged human JAK2 (826 to 1132 end residues) catalytic domain expressed in baculovirus expression system at 1 uM in presence of 1 mM ATP relative to control"}, "[14]": {"molecular_target": "Tyrosine-protein kinase JAK3 (Homo sapiens) (UniProt P52333)", "experiment": "Inhibition of N-terminal His tagged human JAK3 (795 to 1124 end residues) catalytic domain expressed in baculovirus expression system at 1 uM in presence of ATP at its Km level relative to control"}, "[15]": {"molecular_target": "Dual specificity mitogen-activated protein kinase kinase 5 (Homo sapiens) (UniProt Q13163)", "experiment": "Inhibition of N-terminal GST tagged full length human MAP2K5 (1 to 448 end residues) co-expressing His tagged MAP3K3/ CDC37/HSP90 expressed in baculovirus expression system at 1 uM in presence of ATP at its Km level relative to control"}, "[16]": {"molecular_target": "Serine/threonine-protein kinase SIK2 (Homo sapiens) (UniProt Q9H0K1)", "experiment": "Inhibition of N-terminal GST tagged full length human QIK (1 to 926 end residues) expressed in baculovirus expression system at 1 uM in presence of ATP at its Km level relative to control"}, "Rattus norvegicus": {"system": "Rattus norvegicus", "experiment": "Antiarthritic activity in complete freund's adjuvant-induced Lewis rat arthritis model assessed as reduction in paw volume administered orally as once daily dose via gavage treated for 7 consecutive days by plethysmography", "type": "functional, organism-based"}, "[17]": {"molecular_target": "MAP kinase-interacting serine/threonine-protein kinase 2 (Homo sapiens) (UniProt Q9HBH9)", "experiment": "Inhibition of N-terminal GST tagged full length human MNK2 (1 to 465 end residues) expressed in baculovirus expression system at 1 uM in presence of ATP at its Km level relative to control"}, "[18]": {"molecular_target": "Mitogen-activated protein kinase 7 (Homo sapiens) (UniProt Q13164)", "experiment": "Inhibition of N-terminal GST tagged human ERK5 (1 to 398 residues) cytoplasmic domain expressed in Escherichia coli at 1 uM in presence of ATP at its Km level relative to control"}, "[19]": {"molecular_target": "Platelet-derived growth factor receptor alpha (Homo sapiens) (UniProt P16234)", "experiment": "Inhibition of N-terminal GST tagged human PDGFRalpha (550 to 1089 end residues) cytoplasmic domain expressed in baculovirus expression system at 1 uM in presence of ATP at its Km level relative to control"}, "[20]": {"molecular_target": "T3, Tyrosine-protein kinase JAK2", "experiment": "Inhibition of N-terminal His tagged human JAK2 (826 to 1132 end residues) catalytic domain expressed in baculovirus expression system at 1 uM in presence of ATP at its Km level relative to control"}, "[21]": {"molecular_target": "Non-receptor tyrosine-protein kinase TNK1 (Homo sapiens) (UniProt Q13470)", "experiment": "Inhibition of N-terminal GST tagged human TNK1 (106 to 390 residues) catalytic domain expressed in baculovirus expression system at 1 uM in presence of 1 mM ATP relative to control"}, "[22]": {"molecular_target": "Aurora kinase A (Homo sapiens) (UniProt O14965)", "experiment": "Inhibition of N-terminal GST tagged full length human AurA (1 to 403 end residues) expressed in baculovirus expression system at 1 uM in presence of ATP at its Km level relative to control"}, "[23]": {"molecular_target": "T2, Tyrosine-protein kinase JAK1", "experiment": "Inhibition of N-terminal GST tagged human JAK1 (850 to 1154 end residues) catalytic domain expressed in baculovirus expression system at 1 uM in presence of 1 mM ATP relative to control"}, "[24]": {"molecular_target": "Serine/threonine-protein kinase SIK1 (Homo sapiens) (UniProt P57059)", "experiment": "Inhibition of N-terminal GST tagged full length human SIK (1 to 783 end residues) expressed in baculovirus expression system at 1 uM in presence of ATP at its Km level relative to control"}},
  "data": [
    {"smiles": "Cn1cc(Nc2nccc(N3CC4CC[C@H](C3)N4C(=O)[C@@H]3CC3(F)F)n2)cn1", "note": "(single isomer, unassigned)", "values": [
      {"measurement": "inhibition", "setting": "[1]", "result": 66, "unit": "%"},
      {"measurement": "inhibition", "setting": "[2]", "result": 78, "unit": "%"},
      {"measurement": "inhibition", "setting": "[3]", "result": 60, "unit": "%"},
      {"measurement": "inhibition", "setting": "[4]", "result": 82, "unit": "%"},
      {"measurement": "inhibition", "setting": "[5]", "result": 98, "unit": "%"},
      {"measurement": "inhibition", "setting": "[6]", "result": 59, "unit": "%"},
      {"measurement": "inhibition", "setting": "[7]", "result": 101, "unit": "%"},
      {"measurement": "inhibition", "setting": "[8]", "result": 50, "unit": "%"},
      {"measurement": "inhibition", "setting": "[9]", "result": 59, "unit": "%"},
      {"measurement": "inhibition", "setting": "[10]", "result": 94, "unit": "%"},
      {"measurement": "inhibition", "setting": "[11]", "result": 60, "unit": "%"},
      {"measurement": "inhibition", "setting": "[12]", "result": 101, "unit": "%"},
      {"measurement": "inhibition", "setting": "[13]", "result": 94, "unit": "%"},
      {"measurement": "inhibition", "setting": "[14]", "result": 92, "unit": "%"},
      {"measurement": "inhibition", "setting": "[15]", "result": 70, "unit": "%"},
      {"measurement": "inhibition", "setting": "[16]", "result": 91, "unit": "%"},
      {"measurement": "Activity", "setting": "Rattus norvegicus", "result": "Dose-dependent effect"},
      {"measurement": "inhibition", "setting": "[17]", "result": 68, "unit": "%"},
      {"measurement": "inhibition", "setting": "[18]", "result": 63, "unit": "%"},
      {"measurement": "inhibition", "setting": "[19]", "result": 70, "unit": "%"},
      {"measurement": "inhibition", "setting": "[20]", "result": 101, "unit": "%"},
      {"measurement": "inhibition", "setting": "[21]", "result": 64, "unit": "%"},
      {"measurement": "inhibition", "setting": "[22]", "result": 62, "unit": "%"},
      {"measurement": "inhibition", "setting": "[23]", "result": 96, "unit": "%"},
      {"measurement": "inhibition", "setting": "[24]", "result": 77, "unit": "%"}
    ]}
  ]
}
